According to the NIST ThermoML archive (doi:10.1021/je3013205):

Assay: xn = mol fraction of the nth substance listed
Settings: 101 kPa, Liquid, Vibrating tube method

NCCOCCO [2-(2-aminoethoxy)ethanol] + CC(C)O
mass density [kg/m3]
Settings	x2 = 0	x2 = 0.1002	x2 = 0.2002	x2 = 0.2999	x2 = 0.3998	x2 = 0.5001	x2 = 0.6	x2 = 0.7001	x2 = 0.7999	x2 = 0.9
283.15 K	1063.9	1045.45	1024.83	1002.4	978.848	953.526	926.557	896.824	864.765	830.522
293.15 K	1055.86	1037.41	1016.77	994.333	970.775	945.419	918.428	888.658	856.572	822.302
303.15 K	1047.8	1029.32	1008.68	986.21	962.634	937.23	910.206	880.385	848.24	813.893
313.15 K	1039.73	1021.21	1000.54	978.03	954.426	928.957	901.852	871.966	839.727	805.266
323.15 K	1031.63	1013.07	992.342	969.77	946.127	920.579	893.378	863.375	831.011	796.354
333.15 K	1023.46	1004.87	984.07	961.425	937.625	912.056	884.74	854.584	822.035	787.116
343.15 K	1015.24	996.578	975.712	952.983	929.152	903.381	875.931	845.569	812.769	777.485

OCCO [1,2-ethanediol] + NCCO
x1 = 1
Settings	mass density [kg/m3]
283.15 K	1119.29
293.15 K	1112.37
303.15 K	1105.39
313.15 K	1098.34
323.15 K	1091.21
333.15 K	1083.99
343.15 K	1076.65

CC(C)O [propan-2-ol] + NCCO
x1 = 1
Settings	mass density [kg/m3]
283.15 K	794.005
293.15 K	785.764
303.15 K	777.284
313.15 K	768.476
323.15 K	759.309
333.15 K	749.679
343.15 K	739.528

NCCO [2-aminoethan-1-ol] + CO
mass density [kg/m3]
Settings	x2 = 0	x2 = 0.0999	x2 = 0.2	x2 = 0.3001	x2 = 0.4	x2 = 0.5	x2 = 0.6001	x2 = 0.7026	x2 = 0.7998	x2 = 0.8999
283.15 K	1024.11	1012.96	1000.24	985.644	969.73	951.484	930.19	904.556	875.763	841.316
293.15 K	1016.23	1005	992.199	977.53	961.548	943.204	921.795	895.978	867.002	832.282
303.15 K	1008.32	997.005	984.108	969.37	953.296	934.844	913.321	887.345	858.177	823.2
313.15 K	1000.37	988.961	975.96	961.142	944.973	926.41	904.767	878.633	849.26	814.016
323.15 K	992.364	980.886	967.788	952.855	936.722	917.891	896.116	869.812	840.244	804.724
333.15 K	984.301	972.713	959.607	944.613	928.096	909.268	887.352	860.859	831.072	795.281

NCCO [2-aminoethan-1-ol] + OCCO
mass density [kg/m3]
Settings	x2 = 0	x2 = 0.1002	x2 = 0.2	x2 = 0.2998	x2 = 0.3999	x2 = 0.5001	x2 = 0.5999	x2 = 0.7	x2 = 0.8002	x2 = 0.8999
283.15 K	1024.11	1035.45	1046.35	1056.77	1066.86	1076.47	1085.82	1094.87	1103.84	1112.47
293.15 K	1016.23	1027.68	1038.7	1049.24	1059.48	1069.16	1078.59	1087.73	1096.76	1105.44
303.15 K	1008.32	1019.88	1031.01	1041.67	1052.04	1061.82	1071.33	1080.56	1089.64	1098.37
313.15 K	1000.37	1012.03	1023.26	1034.05	1044.53	1054.42	1064.02	1073.32	1082.46	1091.24
323.15 K	992.364	1004.13	1015.46	1026.35	1036.96	1046.93	1056.62	1066.01	1075.21	1084.05
333.15 K	984.301	996.181	1007.58	1018.58	1029.3	1039.37	1049.14	1058.6	1067.87	1076.77
343.15 K	976.153	988.118	999.618	1010.71	1021.54	1031.7	1041.55	1051.09	1060.42	1069.37
